Results as given in patent US11058688B2, “Imidazopiperazine inhibitors of transcription activating proteins” (Board of Regents, The University of Texas System, priority 2018, dated 2021).

What was measured:
[1] = biological target: GST-CBP(1081-1197) bromodomain (Homo sapiens (Human), UniProt Q92793); experiment: CBP AlphaScreen Assay; details: binding to biotin-H4(1-21) Ac-K5/8/12/16 peptide
Method: (§1) Specific binding of the CBP or BRD4 bromodomain to the acetylated peptide derived from the H4 histone substrate (tetra acetylated H4(1-21) Ac-K5/8/12/16) was measured in absence or presence of inhibitors.
(§2) The standard dose response curves were fitted by Genedata Screener software using the variable-slope model: Signal=Signalnegative control+(SignalDMSO control−Signalnegative control)/(1+(IC50/Dose)^Hill slope).
(§3) Only Signal and Dose in the equation were treated as known values.

BRD4(49-170) bromodomain = BRD4(49-170) bromodomain (Homo sapiens (Human), UniProt O60885); experiment: BRD4 AlphaScreen Assay; details: binding to biotin-H4(1-21) Ac-K5/8/12/16 peptide
Method: as §1, §2, §3

Chain of GST-CBP(1081-1197) bromodomain (Q92793 1081-1197): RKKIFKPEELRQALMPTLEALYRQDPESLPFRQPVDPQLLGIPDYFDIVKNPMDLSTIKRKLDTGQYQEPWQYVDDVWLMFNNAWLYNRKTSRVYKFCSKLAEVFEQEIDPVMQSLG

IC50 [1]	IC50 (BRD4(49-170) bromodomain)	SMILES
1180 nM	> 25000 nM	CC(=O)N1CCn2c(C3CC3)nc(-c3ccc4c(c3)c(-c3c(C)noc3C)nn4C)c2C1 [Example 30, 1-(3-Cyclopropyl-1-(3-(3,5-dimethylisoxazol-4-yl)-1-methyl-1H-indazol-5-yl)-5,6-dihydroimidazo[1,5-a]pyrazin-7(8H)-yl)ethan-1-one]
611 nM	7470 nM	CNC(=O)c1nc(-c2ccc3c(c2)c(-c2cnn(C)c2)nn3C)c2n1CCN(C(C)=O)C2 [Example 31, 7-Acetyl-N-methyl-1-(1-methyl-3-(1-methyl-1H-pyrazol-4-yl)-1H-indazol-5-yl)-5,6,7,8-tetrahydroimidazo[1,5-a]pyrazine-3-carboxamide]
439 nM	> 10000 nM	CC(=O)N1CCn2c(Cl)nc(-c3ccc4c(c3)c(-c3cnn(C)c3)nn4C)c2C1 [Example 32, 1-(3-Chloro-1-(1-methyl-3-(1-methyl-1H-pyrazol-4-yl)-1H-indazol-5-yl)-5,6-dihydroimidazo[1,5-a]pyrazin-7(8H)-yl)ethan-1-one]
40 nM	> 10000 nM	CNC(=O)N1CCn2c(C3CC3)nc(N3CCCc4nc(-c5cnn(C)c5)c(C(F)(F)F)cc43)c2C1 [Example 33, 3-Cyclopropyl-N-methyl-1-(6-(1-methyl-1H-pyrazol-4-yl)-7-(trifluoromethyl)-3,4-dihydro-1,5-naphthyridin-1(2H)-yl)-5,6-dihydroimidazo[1,5-a]pyrazine-7(8H)-carboxamide]
37 nM	17300 nM	CNC(=O)N1CCn2c(C3CC3)nc(-c3cccc4nc(-c5cnn(C)c5)c(C(F)F)cc34)c2C1 [Example 34, 3-Cyclopropyl-1-(3-(difluoromethyl)-2-(1-methyl-1H-pyrazol-4-yl)quinolin-5-yl)-N-methyl-5,6-dihydroimidazo[1,5-a]pyrazine-7(8H)-carboxamide]
79 nM	> 25000 nM	CC(=O)N1CCn2c(C3CC3)nc(N3CCCc4cc(-c5ccc(C(N)=O)cc5)ccc43)c2C1 [Example 35, 4-(1-(7-Acetyl-3-cyclopropyl-5,6,7,8-tetrahydroimidazo[1,5-a]pyrazin-1-yl)-1,2,3,4-tetrahydroquinolin-6-yl)benzamide]
38 nM	9710 nM	CNC(=O)N1CCn2c(C3CC3)nc(-c3ccnc4nc(-c5cnn(C)c5)c(C(F)F)cc34)c2C1 [Example 36, 3-Cyclopropyl-1-(6-(difluoromethyl)-7-(1-methyl-1H-pyrazol-4-yl)-1,8-naphthyridin-4-yl)-N-methyl-5,6-dihydroimidazo[1,5-a]pyrazine-7(8H)-carboxamide]
16 nM	14300 nM	CNC(=O)N1CCn2c(C3CC3)nc(-c3cccc4nc(-c5cnn(C)c5)ncc34)c2C1 [Example 37, 3-Cyclopropyl-N-methyl-1-(2-(1-methyl-1H-pyrazol-4-yl)quinazolin-5-yl)-5,6-dihydroimidazo[1,5-a]pyrazine-7(8H)-carboxamide]
32 nM	19800 nM	CNC(=O)N1CCn2c(C3CC3)nc(-c3c[nH]c4cc(-c5cnn(C)c5)ncc34)c2C1 [Example 38, 3-Cyclopropyl-N-methyl-1-(6-(1-methyl-1H-pyrazol-4-yl)-1H-pyrrolo[3,2-c]pyridin-3-yl)-5,6-dihydroimidazo[1,5-a]pyrazine-7(8H)-carboxamide]
33 nM	14800 nM	CNC(=O)N1CCn2c(C3CC3)nc(-c3csc4cc(-c5cnn(C)c5)ncc34)c2C1 [Example 39, 3-Cyclopropyl-N-methyl-1-(6-(1-methyl-1H-pyrazol-4-yl)thieno[3,2-c]pyridin-3-yl)-5,6-dihydroimidazo[1,5-a]pyrazine-7(8H)-carboxamide]
2 nM	4780 nM	CNC(=O)N1CCn2c(C3CC3)nc(-c3cncc4cc(-c5cnn(C)c5)c(C(F)F)cc34)c2C1 [Example 40, 3-Cyclopropyl-1-(6-(difluoromethyl)-7-(1-methyl-1H-pyrazol-4-yl)isoquinolin-4-yl)-N-methyl-5,6-dihydroimidazo[1,5-a]pyrazine-7(8H)-carboxamide]
4490 nM	> 25000 nM	CC(=O)N1CCn2c(C3CC3)nc(-c3cnc(N)c(OC(F)(F)F)c3)c2C1 [Example 41, 1-(1-(6-amino-5-(trifluoromethoxy)pyridin-3-yl)-3-cyclopropyl-5,6-dihydroimidazo[1,5-a]pyrazin-7(8H)-yl)ethan-1-one]
4260 nM	> 25000 nM	COc1ccc(-c2nc(C3CC3)n3c2CN(C(C)=O)CC3)cc1OC [Example 42, 1-(3-cyclopropyl-1-(3,4-dimethoxyphenyl)-5,6-dihydroimidazo[1,5-a]pyrazin-7(8H)-yl)ethan-1-one]
3190 nM	> 25000 nM	CC(=O)N1CCn2c(C3CC3)nc(-c3ccc4c(cnn4C)c3)c2C1 [Example 43, 1-(3-cyclopropyl-1-(1-methyl-1H-indazol-5-yl)-5,6-dihydroimidazol[1,5-a]pyrazin-7(8H)-yl)ethan-1-one]
47 nM	12100 nM	CC(=O)N1CCn2c(C3CC3)nc(-c3ccc4c(c3)c(-c3cnn(C)c3)nn4C)c2C1 [Example 44, 1-(3-cyclopropyl-1-(1-methyl-3-(1-methyl-1H-pyrazol-4-yl)-1H-indazol-5-yl)-5,6-dihydroimidazo[1,5-a]pyrazin-7(8H)-yl)ethan-1-one]
124 nM	6290 nM	CC(=O)N1CCn2c(C3CCOC3)nc(-c3ccc4c(c3)c(-c3cnn(C)c3)nn4C)c2C1 (stereo not drawn) [Example 45, 1-(1-(1-methyl-3-(1-methyl-1H-pyrazol-4-yl)-1H-indazol-5-yl)-3-(tetrahydrofuran-3-yl)-5,6-dihydroimidazo[1,5-a]pyrazin-7(8H)-yl)ethan-1-one]
52 nM	> 10000 nM	CC(=O)N1CCn2c(C3CCC3)nc(-c3ccc4c(c3)c(-c3cnn(C)c3)nn4C)c2C1 [Example 46, 1-(3-cyclobutyl-1-(1-methyl-3-(1-methyl-1H-pyrazol-4-yl)-1H-indazol-5-yl)-5,6-dihydroimidazo[1,5-a]pyrazin-7(8H)-yl)ethan-1-one]
153 nM	> 10000 nM	CC(=O)N1CCn2c(C)nc(-c3ccc4c(c3)c(-c3cnn(C)c3)nn4C)c2C1 [Example 47, 1-(3-methyl-1-(1-methyl-3-(1-methyl-1H-pyrazol-4-yl)-1H-indazol-5-yl)-5,6-dihydroimidazo[1,5-a]pyrazin-7(8H)-yl)ethan-1-one]
36 nM	> 10000 nM	CNC(=O)N1CCn2c(C)nc(-c3ccc4c(c3)c(-c3cnn(C)c3)nn4C)c2C1 [Example 48, N,3-dimethyl-1-(1-methyl-3-(1-methyl-1H-pyrazol-4-yl)-1H-indazol-5-yl)-5,6-dihydroimidazo[1,5-a]pyrazine-7(8H)-carboxamide]
67 nM	> 10000 nM	CC(=O)N1CCn2c(C(C)C)nc(-c3ccc4c(c3)c(-c3cnn(C)c3)nn4C)c2C1 [Example 49, 1-(3-isopropyl-1-(1-methyl-3-(1-methyl-1H-pyrazol-4-yl)-1H-indazol-5-yl)-5,6-dihydroimidazo[1,5-a]pyrazin-7(8H)-yl)ethan-1-one]
12 nM	> 10000 nM	CNC(=O)N1CCn2c(C(C)C)nc(-c3ccc4c(c3)c(-c3cnn(C)c3)nn4C)c2C1 [Example 50, 3-isopropyl-N-methyl-1-(1-methyl-3-(1-methyl-1H-pyrazol-4-yl)-1H-indazol-5-yl)-5,6-dihydroimidazo[1,5-a]pyrazine-7(8H)-carboxamide]
149 nM	> 10000 nM	CC(=O)N1CCn2c(C3CCNCC3)nc(-c3ccc4c(c3)c(-c3cnn(C)c3)nn4C)c2C1 [Example 51, 1-(1-(1-methyl-3-(1-methyl-1H-pyrazol-4-yl)-1H-indazol-5-yl)-3-(piperidin-4-yl)-5,6-dihydroimidazo[1,5-a]pyrazin-7(8H)-yl)ethan-1-one]
20 nM	> 10000 nM	CNC(=O)N1CCn2c(C3CCNCC3)nc(-c3ccc4c(c3)c(-c3cnn(C)c3)nn4C)c2C1 [Example 52, N-methyl-1-(1-methyl-3-(1-methyl-1H-pyrazol-4-yl)-1H-indazol-5-yl)-3-(piperidin-4-yl)-5,6-dihydroimidazo[1,5-a]pyrazine-7(8H)-carboxamide]
176 nM	> 10000 nM	CC(=O)N1CCC(c2nc(-c3ccc4c(c3)c(-c3cnn(C)c3)nn4C)c3n2CCN(C(C)=O)C3)CC1 [Example 53, 1-(4-(7-acetyl-1-(1-methyl-3-(1-methyl-1H-pyrazol-4-yl)-1H-indazol-5-yl)-5,6,7,8-tetrahydroimidazo[1,5-a]pyrazin-3-yl)piperidin-1-yl)ethan-1-one]
141 nM	> 10000 nM	CC(=O)N1CCn2c(C3CCN(C)CC3)nc(-c3ccc4c(c3)c(-c3cnn(C)c3)nn4C)c2C1 [Example 54, 1-(1-(1-methyl-3-(1-methyl-1H-pyrazol-4-yl)-1H-indazol-5-yl)-3-(1-methylpiperidin-4-yl)-5,6-dihydroimidazo[1,5-a]pyrazin-7(8H)-yl)ethan-1-one]
18 nM	> 10000 nM	CNC(=O)N1CCn2c(C3CCN(C(C)=O)CC3)nc(-c3ccc4c(c3)c(-c3cnn(C)c3)nn4C)c2C1 [Example 55, 3-(1-acetylpiperidin-4-yl)-N-methyl-1-(1-methyl-3-(1-methyl-1H-pyrazol-4-yl)-1H-indazol-5-yl)-5,6-dihydroimidazo[1,5-a]pyrazine-7(8H)-carboxamide]
22 nM	> 10000 nM	CNC(=O)N1CCn2c(C3CCN(C)CC3)nc(-c3ccc4c(c3)c(-c3cnn(C)c3)nn4C)c2C1 [Example 56, N-methyl-1-(1-methyl-3-(1-methyl-1H-pyrazol-4-yl)-1H-indazol-5-yl)-3-(1-methylpiperidin-4-yl)-5,6-dihydroimidazo[1,5-a]pyrazine-7(8H)-carboxamide]
